Experimental data as given in article PMC11597050, “Virtual Screening, Molecular Dynamics, and Mechanism Study of Homeodomain-Interacting Protein Kinase 2 Inhibitor in Renal Fibroblasts” (Pharmaceuticals, 2024).

Experiments:
Assay type in all cases: biochemical
HIPK2 [1] = molecular target: T1, HIPK2 (Homo sapiens, UniProt Q9H2X6); experiment: ADP-Glo kinase assay (positive control drug); conditions: read-out: IC50 ± SEM (μM) / HIPK2
HIPK3 = HIPK3 (Homo sapiens, UniProt Q9H422); experiment: kinase inhibition assay, percent inhibition at […]
HIPK2 [2] = molecular target: T1, HIPK2; experiment: ADP-Glo kinase assay (MBP substrate); conditions: read-out: IC50 ± SEM (μM) / HIPK2

T1 sequence (Q9H2X6 whole entry): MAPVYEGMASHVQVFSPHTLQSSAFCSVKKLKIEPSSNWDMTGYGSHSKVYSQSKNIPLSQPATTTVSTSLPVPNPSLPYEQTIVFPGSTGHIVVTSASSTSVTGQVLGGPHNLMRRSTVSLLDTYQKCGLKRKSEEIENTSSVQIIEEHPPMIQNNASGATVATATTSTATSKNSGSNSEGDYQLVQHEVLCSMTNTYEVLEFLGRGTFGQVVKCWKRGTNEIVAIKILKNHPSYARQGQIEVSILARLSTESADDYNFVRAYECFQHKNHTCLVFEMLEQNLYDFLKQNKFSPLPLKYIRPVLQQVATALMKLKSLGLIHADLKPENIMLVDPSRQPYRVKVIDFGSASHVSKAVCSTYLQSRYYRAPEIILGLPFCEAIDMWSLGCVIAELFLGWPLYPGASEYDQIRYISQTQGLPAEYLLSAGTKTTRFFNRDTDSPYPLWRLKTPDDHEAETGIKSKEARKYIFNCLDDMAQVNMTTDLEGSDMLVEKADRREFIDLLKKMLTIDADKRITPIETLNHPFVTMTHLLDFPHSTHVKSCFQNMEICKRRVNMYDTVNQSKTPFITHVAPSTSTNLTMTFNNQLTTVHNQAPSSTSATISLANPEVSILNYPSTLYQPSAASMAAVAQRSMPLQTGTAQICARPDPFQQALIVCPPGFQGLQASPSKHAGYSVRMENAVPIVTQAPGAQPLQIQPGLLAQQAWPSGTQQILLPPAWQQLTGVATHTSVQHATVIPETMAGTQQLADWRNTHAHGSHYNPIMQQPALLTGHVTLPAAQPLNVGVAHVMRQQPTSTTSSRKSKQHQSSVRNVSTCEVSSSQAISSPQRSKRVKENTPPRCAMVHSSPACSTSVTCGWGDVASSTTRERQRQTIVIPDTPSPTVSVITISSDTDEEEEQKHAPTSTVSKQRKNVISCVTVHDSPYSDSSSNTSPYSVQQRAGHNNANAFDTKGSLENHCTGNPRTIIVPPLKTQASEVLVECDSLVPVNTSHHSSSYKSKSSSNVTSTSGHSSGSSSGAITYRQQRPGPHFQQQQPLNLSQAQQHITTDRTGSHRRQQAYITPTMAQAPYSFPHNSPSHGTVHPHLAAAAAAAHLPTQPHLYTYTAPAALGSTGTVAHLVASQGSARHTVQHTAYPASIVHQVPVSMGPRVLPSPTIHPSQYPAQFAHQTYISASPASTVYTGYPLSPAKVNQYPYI
Sequence of HIPK3 (Q9H422 whole entry): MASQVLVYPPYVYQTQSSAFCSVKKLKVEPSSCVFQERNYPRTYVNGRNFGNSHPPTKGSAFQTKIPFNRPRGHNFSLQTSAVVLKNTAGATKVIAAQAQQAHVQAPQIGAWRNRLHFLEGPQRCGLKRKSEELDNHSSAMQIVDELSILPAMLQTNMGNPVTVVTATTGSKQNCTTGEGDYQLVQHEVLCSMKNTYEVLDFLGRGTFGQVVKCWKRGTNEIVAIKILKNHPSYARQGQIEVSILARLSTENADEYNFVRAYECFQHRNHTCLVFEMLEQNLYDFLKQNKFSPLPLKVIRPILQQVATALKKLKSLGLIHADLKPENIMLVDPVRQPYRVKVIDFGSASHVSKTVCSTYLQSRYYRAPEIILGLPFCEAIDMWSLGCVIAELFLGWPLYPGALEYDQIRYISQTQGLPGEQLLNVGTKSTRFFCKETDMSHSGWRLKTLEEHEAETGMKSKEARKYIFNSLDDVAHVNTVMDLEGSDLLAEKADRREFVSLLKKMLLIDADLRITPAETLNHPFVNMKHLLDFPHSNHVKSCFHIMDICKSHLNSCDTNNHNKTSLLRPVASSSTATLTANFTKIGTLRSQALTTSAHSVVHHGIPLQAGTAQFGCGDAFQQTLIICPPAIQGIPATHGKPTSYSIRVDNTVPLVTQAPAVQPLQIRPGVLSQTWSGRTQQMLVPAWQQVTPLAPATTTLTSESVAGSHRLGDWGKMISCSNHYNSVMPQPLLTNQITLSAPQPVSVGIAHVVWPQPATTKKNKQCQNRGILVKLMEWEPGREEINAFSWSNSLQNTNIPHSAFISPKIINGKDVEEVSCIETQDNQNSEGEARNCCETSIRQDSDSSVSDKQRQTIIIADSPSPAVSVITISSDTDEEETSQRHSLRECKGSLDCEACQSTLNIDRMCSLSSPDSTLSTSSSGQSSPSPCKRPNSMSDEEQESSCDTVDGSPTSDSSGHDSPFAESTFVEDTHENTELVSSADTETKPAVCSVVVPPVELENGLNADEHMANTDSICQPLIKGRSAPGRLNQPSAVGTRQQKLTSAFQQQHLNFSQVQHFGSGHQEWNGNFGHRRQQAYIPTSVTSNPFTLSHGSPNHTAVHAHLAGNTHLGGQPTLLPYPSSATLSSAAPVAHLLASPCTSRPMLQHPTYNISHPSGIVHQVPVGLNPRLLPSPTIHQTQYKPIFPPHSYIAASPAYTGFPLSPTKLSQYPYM

IC50 (HIPK2 [1])	inhibition at 10 µM (HIPK3)	SMILES	IC50 (HIPK2 [2])
0.45 ± 0.12 µM	> 90%	CCN1CCN(Cc2ccc(Nc3ncc(F)c(-c4cc(F)c5nc(C)n(C(C)C)c5c4)n3)nc2)CC1 [Abemaciclib]	
		O=C1Nc2ccc3ncsc3c2/C1=C/c1c[nH]cn1 [T16550]	3.58 ± 0.06 µM
		CCCNc1ccc2ncc(-c3ccc4[nH]ncc4c3)n2n1 [T9521, 3-(1H-indazol-5-yl)-N-propylimidazo[1,2-b]pyridazin-6-amine]	0.97 ± 0.04 µM
